Patent US12180169B1, “4-[4,4-bis(4-bromophenyl)-5-oxo-2-thioxoimidazolidin-1-yl]butanoic acid as an antimicrobial compound” (KING FAISAL UNIVERSITY, priority 2023, dated 2024)

Experiments:
Format in all cases: cell-based
Conditions in all cases: after 10, 20, 40 and 60 min at all dilutions 1:100, 1:200, 1:400, 1:800
Staphylococcus aereus = assay: Antimicrobial testing by agar dilution, Staphylococcus aereus
Procedure: (§1) The antimicrobial properties of the 4-[4,4-bis(4-bromophenyl)-2,5-dioxoimidazolidin-1-yl]butanoic acid were studied by the method of agar dilution. Test solutions of each compound was prepared in concentration of 1% using dimethylformamide as a solvent then they are diluted in physiological solution to obtain the final experimental dilutions 1:100, 1:200, 1:400, 1:800. The effect of these substances are compared with furacillin in a controlable study. The testing microbes used were gram positive bacteria Staphylococcus aereus, gram negative bacteria Escherichia coli, Pseudomonas aeruginosa and Candida albicans fungi were taken. The experiments used for this survey were meat-pentonlu agar (EPA) for cultivation of bacteria and Saburo environment for fungi. Each experiment used 1 ml of test solution on each plate 500 min. Add 2 drops of emulsified with microbes feel. All experimental samples were taken from the agar after 10, 20, 40, 60 minutes in the environment on the basis of Patrk planted. Bacteria were cultivated at a temperature of 37° C. for 1 day and the mushroom was kept in a thermostat for […] at a temperature of 28° C. in the. Then results were checked.

Pseudomonas aeruginosa = assay: Antimicrobial testing by agar dilution, Pseudomonas aeruginosa
Procedure: as §1

Candida albicans = assay: Antimicrobial testing by agar dilution, Candida albicans fungi
Procedure: as §1

Escherichia coli = assay: Antimicrobial testing by agar dilution, Escherichia coli
Procedure: as §1

Measured: inhibition activity (summary in words)

O=C(O)CCCN1C(=O)C(c2ccc(Br)cc2)(c2ccc(Br)cc2)NC1=S [4-[4,4-bis(4-bromophenyl)-5-oxo-2-thioxoimidazolidin-1-yl]butanoic acid]
higher inhibition activity: all assays above
